# Assay results taken from patent publication US9447148B2, “Melanocortin-1 receptor-specific cyclic peptides” (Palatin Technologies, Inc., priority 2009, dated 2016).
# Bridge positions count the residues as written; N and C are the ends. Square brackets hold non-standard residues; d marks the D form. Peptide text beside a SMILES is read from it. dPhe(3,4-F2) = N[C@H](Cc1ccc(F)c(F)c1)C(=O)O; dPhe(3-Cl) = N[C@H](Cc1cccc(Cl)c1)C(=O)O; dPhe(4-Cl) = N[C@H](Cc1ccc(Cl)cc1)C(=O)O; dPhe(2-Cl) = N[C@H](Cc1ccccc1Cl)C(=O)O; dPhe(4-F) = N[C@H](Cc1ccc(F)cc1)C(=O)O; dPhe(2-F) = N[C@H](Cc1ccccc1F)C(=O)O; Nle = CCCC[C@H](N)C(=O)O; Orn = NCCC[C@H](N)C(=O)O; Dab = NCC[C@H](N)C(=O)O; Dap = NC[C@H](N)C(=O)O
# Assays:
# [1] = molecular target: hMCR-1a (Homo sapiens (Human), UniProt Q01726); assay: Competitive inhibition binding assay using [I125]-NDP-α-MSH, hMCR-1a; settings: membrane homogenates of HEK-293 cells, human recombinant receptor, averaged, read-out: MC-1 Ki (average)
# Sequence of hMCR-1a (Q01726 whole entry): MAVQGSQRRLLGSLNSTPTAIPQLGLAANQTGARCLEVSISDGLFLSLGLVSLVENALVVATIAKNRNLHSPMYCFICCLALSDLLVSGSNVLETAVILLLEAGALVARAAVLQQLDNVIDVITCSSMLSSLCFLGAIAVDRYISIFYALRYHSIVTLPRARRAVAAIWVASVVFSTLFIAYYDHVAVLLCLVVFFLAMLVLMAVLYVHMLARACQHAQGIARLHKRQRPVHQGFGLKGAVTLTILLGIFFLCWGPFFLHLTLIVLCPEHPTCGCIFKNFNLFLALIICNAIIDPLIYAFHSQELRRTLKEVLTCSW
# Procedure: (§1) A competitive inhibition binding assay was performed using membrane homogenates prepared from HEK-293 cells that express recombinant hMCR-1a or hMCR-4 (in each instance where the h prefix refers to human), or alternatively membrane homogenates from B16-F10 mouse melanoma cells containing endogenous murine MCR-1. In the examples that follow, all MCR-1 and MCR-4 values are for human recombinant receptors, unless otherwise noted. Assays were performed in 96 well polypropylene round-bottom plates (VWR catalog number 12777-030). […] After incubation for 90 minutes at 37° C., the assay mixture was filtered onto GF/B Unifilter plates (Perkin-Elmer catalog number 6005177) and washed with 3 mL of ice-cold buffer per well. Filters were air dried and 35 μL of scintillation cocktail added to each well. Plates were counted in a Microbeta counter for bound radioactivity. […] Each assay was conducted in duplicate and the actual mean values are described, with results less than 0% reported as 0%. Ki values for peptides of the present invention were determined using Graph-Pad Prism® curve-fitting software.
# (§2) Peptides of the following structures were synthesized and averaged MCR-1 and MCR-4 Ki values were determined as indicated. […] All results are expressed in nM except for Emax values, which are percentage values. Peptides with the captioned primary sequence were synthesized and purified as described in Section 5 above, with the resulting peptide having the structure depicted.
# [2] = molecular target: hMCR-1 (Homo sapiens (Human), UniProt Q01726); assay: Assay for agonist activity: intracellular cAMP accumulation in HBL human melanoma cells; type: cell-based; settings: for EC50: HBL cells expressing hMCR-1, averaged, read-out: MC-1 EC50 (average; cAMP HBL)
# Sequence of hMCR-1 (Q01726 whole entry): as above
# Procedure: Confluent HBL cells that express hMCR-1 or HEK-293 cells that express recombinant hMCR-4 were detached from culture plates by incubation in enzyme-free cell dissociation buffer. Dispersed cells were suspended in Earle's Balanced Salt Solution containing 10 mM HEPES (pH 7.5), 1 mM MgCl2, 1 mM glutamine, 0.5% albumin and 0.3 mM 3-isobutyl-1-methyl-xanthine (IBMX), a phosphodiesterase inhibitor. The cells were plated in 96-well plates at a density of 0.4×10^5 cells per well for HBL cells and 0.5×10^5 cells per well for HEK-293 cells and pre-incubated for 10 minutes. Cells were exposed for 15 minutes at 37° C. to peptides of the present invention dissolved in DMSO (final DMSO concentration of 1%) at a concentration range of 0.05-5000 nM in a total assay volume of 200 μL. […] Data analysis was performed by nonlinear regression analysis with Graph-Pad Prism® software.
# as §2
# [3] = molecular target: hMCR-4 (Homo sapiens (Human), UniProt P32245); assay: Competitive inhibition binding assay using [I125]-NDP-α-MSH, hMCR-4; settings: membrane homogenates of HEK-293 cells, human recombinant receptor, averaged, read-out: MC-4 Ki (average)
# Sequence of hMCR-4 (P32245 whole entry): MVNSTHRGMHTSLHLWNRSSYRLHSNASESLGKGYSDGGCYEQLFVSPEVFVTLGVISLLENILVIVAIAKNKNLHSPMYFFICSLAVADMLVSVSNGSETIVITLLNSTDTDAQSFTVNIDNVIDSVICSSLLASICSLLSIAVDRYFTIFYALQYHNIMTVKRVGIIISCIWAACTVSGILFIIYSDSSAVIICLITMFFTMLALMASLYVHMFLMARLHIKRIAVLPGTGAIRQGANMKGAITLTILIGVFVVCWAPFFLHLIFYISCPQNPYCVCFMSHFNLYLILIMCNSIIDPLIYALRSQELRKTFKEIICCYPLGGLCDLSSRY
# Procedure: as §1, §2
Compound,Ki [1] [nM],"Emax ([2]; HBL, HBL cells, maximum efficacy compared to reference agonist NDP-α-MSH, read-out: MC-1 Emax (average; cAMP HBL)) [%]",Ki [3] [nM],EC50 [2] [nM]
"CCCC[C@H](NC(C)=O)C(=O)N[C@H]1CCC(=O)NC[C@@H](C(=O)N[C@@H](Cc2c[nH]c3ccccc23)C(=O)O)NC(=O)[C@H](CCCNC(=N)N)NC(=O)[C@@H](Cc2ccccc2)NC(=O)[C@H](Cc2c[nH]cn2)NC1=O [Example 9.26, Ac-Nle-cyclo(Glu-His-D-Phe-Arg-Dap)-Trp-OH]",1,81,4700,
"CCCC[C@H](NC(C)=O)C(=O)N[C@H]1CC(=O)NC[C@@H](C(=O)N[C@@H](Cc2c[nH]c3ccccc23)C(N)=O)NC(=O)[C@H](CCCNC(=N)N)NC(=O)[C@@H](Cc2ccccc2)NC(=O)[C@H](Cc2c[nH]cn2)NC1=O [Example 9.4, Ac-Nle-cyclo(Asp-His-D-Phe-Arg-Dap)-Trp-NH2] (Ac-[Nle]DH[dF]R[Dap]W-NH2; lactam 2-6)",2,,1320,0.195
"CCCC[C@H](NC(C)=O)C(=O)N[C@H]1CCC(=O)NCC[C@@H](C(N)=O)NC(=O)[C@H](CCCNC(=N)N)NC(=O)[C@@H](Cc2ccccc2F)NC(=O)[C@H](CCCN)NC1=O [Example 9.60, Ac-Nle-cyclo(Glu-Orn-D-Phe(2-F)-Arg-Dab)-NH2] (Ac-[Nle]E[Orn][dPhe(2-F)]R[Dab]-NH2; lactam 2-6)",18,,10000,0.8
"CCCC[C@H](NC(C)=O)C(=O)N[C@H]1CCC(=O)NCC[C@@H](C(=O)N[C@@H](Cc2c[nH]c3ccccc23)C(N)=O)NC(=O)[C@H](C)NC(=O)[C@@H](Cc2ccccc2)NC(=O)[C@H](Cc2c[nH]cn2)NC1=O [Example 9.35, Ac-Nle-cyclo(Glu-His-D-Phe-Ala-Dab)-Trp-NH2] (Ac-[Nle]EH[dF]A[Dab]W-NH2; lactam 2-6)",0.8,,10000,0.115
"CCCC[C@H](NC(C)=O)C(=O)N[C@H]1CCC(=O)NCC[C@@H](C(N)=O)NC(=O)[C@H](CCCNC(=N)N)NC(=O)[C@@H](Cc2cccc(Cl)c2)NC(=O)[C@H](CCCN)NC1=O [Example 9.58, Ac-Nle-cyclo(Glu-Orn-D-Phe(3-Cl)-Arg-Dab)-NH2] (Ac-[Nle]E[Orn][dPhe(3-Cl)]R[Dab]-NH2; lactam 2-6)",35,,10000,2
"CCCC[C@H](NC(C)=O)C(=O)N[C@H]1CCC(=O)NCC[C@@H](C(=O)N[C@@H](C)C(N)=O)NC(=O)[C@H](CCCNC(=N)N)NC(=O)[C@@H](Cc2ccccc2)NC(=O)[C@H](Cc2c[nH]cn2)NC1=O [Example 9.25, Ac-Nle-cyclo(Glu-His-D-Phe-Arg-Dab)-Ala-NH2] (Ac-[Nle]EH[dF]R[Dab]A-NH2; lactam 2-6)",2,,7480,0.08

# Other lines, results leading:
Ki [1] [nM],"Emax ([2]; HBL, HBL cells, maximum efficacy compared to reference agonist NDP-α-MSH, read-out: MC-1 Emax (average; cAMP HBL)) [%]",Ki [3] [nM],EC50 [2] [nM],Compound
30,,10000,1,"CCCC[C@H](NC(C)=O)C(=O)N[C@H]1CCC(=O)NCC[C@@H](C(N)=O)NC(=O)[C@H](CCCNC(=N)N)NC(=O)[C@@H](Cc2ccccc2Cl)NC(=O)[C@H](CCCN)NC1=O [Example 9.57, Ac-Nle-cyclo(Glu-Orn-D-Phe(2-Cl)-Arg-Dab)-NH2] (Ac-[Nle]E[Orn][dPhe(2-Cl)]R[Dab]-NH2; lactam 2-6)"
2,,1240,0.1,"CCCC[C@H](NC(C)=O)C(=O)N[C@H]1CCC(=O)NCC[C@@H](C(N)=O)NC(=O)[C@H](CCCNC(=N)N)NC(=O)[C@@H](Cc2ccc(Cl)cc2)NC(=O)[C@H](CCCN)NC1=O [Example 9.59, Ac-Nle-cyclo(Glu-Orn-D-Phe(4-Cl)-Arg-Dab)-NH2] (Ac-[Nle]E[Orn][dPhe(4-Cl)]R[Dab]-NH2; lactam 2-6)"
40,,10000,1,"CCCC[C@H](NC(C)=O)C(=O)N[C@H]1CCC(=O)NCC[C@@H](C(N)=O)NC(=O)[C@H](CCCNC(=N)N)NC(=O)[C@@H](Cc2ccc(F)c(F)c2)NC(=O)[C@H](CCCN)NC1=O [Example 9.62, Ac-Nle-cyclo(Glu-Orn-D-Phe(3,4-F)-Arg-Dab)-NH2] (Ac-[Nle]E[Orn][dPhe(3,4-F2)]R[Dab]-NH2; lactam 2-6)"
2,,10000,0.12,"CCCC[C@H](NC(C)=O)C(=O)N[C@H]1CCC(=O)NCC[C@@H](C(N)=O)NC(=O)[C@H](CCCNC(=N)N)NC(=O)[C@@H](Cc2ccc(OC)cc2)NC(=O)[C@H](CCCN)NC1=O [Example 9.64, Ac-Nle-cyclo(Glu-Orn-D-Phe(4-OMe)-Arg-Dab)-NH2] (Ac-[Nle]E[Orn][dY](Me)R[Dab]-NH2; lactam 2-6)"
20,,10000,1,"CCCC[C@H](NC(C)=O)C(=O)N[C@H]1CCC(=O)NCC[C@@H](C(N)=O)NC(=O)[C@H](CCCNC(=N)N)NC(=O)[C@@H](Cc2ccc(F)cc2)NC(=O)[C@H](CCCN)NC1=O [Example 9.61, Ac-Nle-cyclo(Glu-Orn-D-Phe(4-F)-Arg-Dab)-NH2] (Ac-[Nle]E[Orn][dPhe(4-F)]R[Dab]-NH2; lactam 2-6)"
